Measurements: the SangsterLogP compilation

Assay: not given
Conditions: not given

logP	Structure (SMILES)
0.54	CN(C)C(=O)NS(=O)(=O)Cc1ccccc1
0.28	NC(=O)NS(=O)(=O)Cc1ccccc1
1.18	CNC(=O)N(C)S(=O)(=O)Cc1ccccc1
0.42	CNC(=O)N(C)S(=O)(=O)c1cccnc1
0.54	CNC(=O)NS(=O)(=O)Cc1ccccc1

Assay: method code SF-AS, from Cloux, J.; Crommen, J.; Delarge, J.; Pirard, M.; Thunus, L. (1988). Attempts at calculating hydrophobic constant of the sulfonylurea group. J Pharm Belg, 43(3)141-151.
Conditions: not given

logP	Structure (SMILES)
0.9	CCNC(=O)NS(=O)(=O)c1ccccc1
0.99	CCN(CC)C(=O)NS(=O)(=O)c1ccccc1
1.44	CCCNC(=O)NS(=O)(=O)c1ccccc1
1.95	CC(C)(C)NC(=O)NS(=O)(=O)c1ccccc1
0.28	NC(=O)NS(=O)(=O)c1ccccc1
1.34	CC(C)NC(=O)NS(=O)(=O)c1ccccc1
0.28	CN(C)C(=O)NS(=O)(=O)c1ccccc1

Same assay, conditions: pH 3.5

logD	Structure (SMILES)
-0.45	CNC(=O)NS(=O)(=O)c1cccnc1
-0.65	NC(=O)NS(=O)(=O)c1cccnc1
